Assay results reported in PMC5647257 (Bioorganic & medicinal chemistry letters, 2017).

Target: HIV-1 protease (Human immunodeficiency virus type 1 group M subtype B, UniProt P04585)
Test: HIV-1 protease inhibitory potency, assay protocol of Toth and Marshall
Assay type: biochemical
Settings: compared with 13-membered inhibitors 5i and 5j

Row | Structure (SMILES) | fold reduction of enzyme inhibitory activity over inhibitors 5i and 5j
1 | COc1ccc2c(c1)COC/C=C\CCCCCN(C[C@@H](O)[C@H](Cc1ccccc1)NC(=O)O[C@H]1CO[C@H]3OCC[C@H]31)S2(=O)=O [5k] | greater than 20 fold
2 | COc1ccc2c(c1)COC/C=C/CCCCCN(C[C@@H](O)[C@H](Cc1ccccc1)NC(=O)O[C@H]1CO[C@H]3OCC[C@H]31)S2(=O)=O [5l] | greater than 20 fold
